Test results: patent publication US6774131B1, “Remedies for endothelin-induced diseases” (Yamanouchi Pharmaceutical Co., Ltd., priority 2000, dated 2004)

What was measured:
Type in all cases: cell-based
[1] = tested on: PPC-1, hormone-refractory human prostate cancer cells; assay: ET-1-induced cell growth ([3H]-thymidine incorporation) of PPC-1
Description: PPC-1, hormone-refractory human prostate cancer cells, was used in these experiments (International Journal of Cancer,44,898-903,1989).
DNA synthesis level was measured as the index of cell growth. As DNA synthesis level, the incorporation of [^3H]-labeled thymidine was assayed. The cells were seeded at a density of 1×10^4 cells/well in a 96-well plate using no FCS-added culture medium and cultured for 5 days. Subsequently, vehicle or ET-1 was added to the plate and cultured for 24 hours. Continuously, [^3H-methyl]-thymidine was added at 0.5 μCi/well to the culture and pulse-labeling performed for 6 hours. Continuously, SDS solution to a final concentration of 0.2% was added for solubilization of the cell, and after solubilization the radioactivity of [^3H-methyl]-thymidine used for DNA synthesis was counted with a liquid scintillation counter. As a control, the count of a culture to which the vehicle was added was defined 100%, thus the percentage increase of DNA synthesis was calculated.
In this experiment, ET-1 and Compound 1 were within the concentration ranges of 10^−13 to 10^−6 M (10-fold dilution series) and 10^−10 to 3×10^−6 M (3-fold dilution series), respectively, as the final concentrations thereof. Compound 1 was added about 2 hr before the addition of ET-1.
The results are shown in the form of mean t standard error. The significant difference between groups was analyzed by one-way analysis of variance, and calculated the p-values by the Dunnett's multiple range test. The p-value below 5% was defined as statistically significant. The IC50 value of the Compound 1 were calculated by the Logistic regression analysis.

[2] = tested on: MC3T3-E1, mouse osteoblast-like cells; assay: ET-1-induced increase of intracellular Ca2+ concentration in MC3T3-E1
Description: (§1) MC3T3-E1, mouse osteoblast-like cells, was used in these experiments (Journal of Cell Biology,96(1),191-198,1983).
The cell was cultured in a cell disk (of a 13.5-mm diameter) until the cell reached confluency; thereafter, the cell was then cultured in the absence of serum, for about 12 hours or longer and used for this experiment. Fura2-AM (4 μM) was added to the cell in the Hank's balanced salt solution (HBSS) (140 mM NaCl, 4 MM KCl, 1 mM K2HPO4, 1 mM MgCl2, 1 mM CaCl2, 10 mM glucose and 20 mM Hepes, pH-7.4) and incubated at 37° C. for one hour. The cell disk was fixed in a quartz cell placing therein HBSS; the quartz cell was fixed in an intracellular Ca^2+ assay unit (CAF-110). […] Intracellular Ca^2+ concentration was estimated by measuring and detecting the ratio of fluorescence intensities at 500 nm with excitation wave lengths of 340/380 nm and calculating intracellular Ca^2+ concentration using designated formula (J.Biol.Chem.,260,3440-3450,1985). […]
(§2) The results are shown in the form of mean±standard error. The significant difference between groups was analyzed by one-way analysis of variance, to calculate the p-values by the Dunnett's multiple range test. […] At each experiment, the EC50 value of ET-1 and the IC50 value of the Compound 1 were calculated by the Logistic regression analysis.

[3] = tested on: MC3T3-E1, mouse osteoblast-like cells; assay: ET-1-induced cell number increase in MC3T3-E1 (cell counting kit, WST-1)
Description: as §1
Cell number was counted by using a reagent solution of a cell counting kit (DOJINDO). The cells were seeded at a density of 1.0×10^4 cells/well in a 24-well plate using 0.5% FCS culture medium and cultured for one day. Subsequently, vehicle or ET-1 was added to the plate and cultured for 72 hours. Continuously, a reagent solution was added at 100 μl/well to the culture and incubated at 37° C. for 3 hours. After this reaction, 200-μl portions were transferred from the individual wells of the 24-well plate to a 96-well plate, to measure the absorbance (at a wave length of 405 nm and a reference wave length of 650 nm) with a plate reader. As a control, the count of a culture to which the vehicle was added was defined 100%, thus the percentage increase of cell number was calculated. […]
as §2

[4] = tested on: PPC-1, hormone-refractory human prostate cancer cells; assay: ET-1-induced cell growth (cell number, alamar blue) of PPC-1; settings: for Cell growth (%): control = 100
Description: PPC-1, hormone-refractory human prostate cancer cells, was used in these experiments(International Journal of Cancer,44,898-903,1989).
Cell number was counted by using a reagent solution of a alamar blue. The cells were seeded at 2×10^4 cells/well in a 24-well plate, after adhesion, the culture media were exchanged to culture media with no FCS-added, and further cultured for another 24 hours. Thereafter, vehicle or ET-1 (10^−11 to 10^−6 M) was added, and cultured for 96 hours. The final volume of the culture medium was 500 μl. Alamar blue of 50 μl was added to the culture, and incubated for 4 hours. After reaction, 100 μl portions collected from the individual wells of the 24-well plate were then transferred to a 96-well plate, and measured the absorbance (at a wave length of 405 nm and a reference wave length of 650 nm) with a plate reader. As a control, the count of a culture to which the vehicle was added was defined 100%, thus the percentage increase of cell number was calculated. The inhibitory effect of the compound was examined by adding the Compound 1 to a final concentration of 10^−9 to 10^−5 M, 30 minutes prior to the addition of ET-1 at 10^−7 M.
At the experiment, the culture medium was exchanged to a culture medium to which ET-1 was contained, 48 hours after stimulation, because the degradation of ET-1 was possible.

| Compound | concentration above which the effect of ET-1 on [3H]-thymidine incorporation was statistically significant [1] | EC50 ([2]; ET-1 10^−12 to 10^−6 M) [nM] | EC50 ([3]; ET-1 10^−12 to 10^−6 M, WST-1) [nM] | concentration from which ET-1-induced cell growth was observed [4] | Cell growth (%) ([4]; ET-1 10^−7 M, 96 h, n = 7 (Table 2)) | Cell growth (%) ([4]; ET-1 10^−7 M, Compound 1 0 (Table 3), n = 7) | Cell growth (%) ([4]; ET-1 10^−8 M, 96 h, n = 7) | Cell growth (%) ([4]; ET-1 10^−9 M, 96 h, n = 7) | Cell growth (%) ([4]; ET-1 10^−10 M, 96 h, n = 7) | Cell growth (%) ([4]; ET-1 10^−11 M, 96 h, n = 7) | concentration above which the inhibitory effect was statistically significant ([1]; ET-1 10^−8 M) | IC50 ([1]; ET-1 10^−8 M, [3H]-thymidine incorporation, read-out: IC50 of ET-1-induced promotion of PPC-1 cell growth) [nM] | IC50 ([2]; ET-1 10^−8 M) [nM] | IC50 ([3]; ET-1 10^−9 M) [nM] | Cell growth (%) ([4]; Compound 1 10^−5 M with ET-1 10^−7 M, n = 7) | Cell growth (%) ([4]; Compound 1 10^−6 M with ET-1 10^−7 M, n = 7) | concentration from which ET-1-induced cell growth was inhibited ([4]; ET-1 10^−7 M) |
| --- | --- | --- | --- | --- | --- | --- | --- | --- | --- | --- | --- | --- | --- | --- | --- | --- | --- |
| ET-1: endothelin; induces pain in humans and experimental animals; used as stimulus of pain, Ca2+ increase and cell growth [reference compound] | above 10^−8 M | 7.39 | 0.022 | ≥ 10^−11 M | 119.3 | 110.5 | 115.3 | 124.0 | 122.3 | 119.6 |  |  |  |  |  |  |  |
| COc1ccccc1Oc1c(NS(=O)(=O)C=Cc2ccccc2)nc(-c2ncccn2)nc1OC.[K] [Compound 1, N-[6-methoxy-5-(2-methoxyphenoxy)-2-(2-pyrimidinyl)-4-pyrimidinyl]-2-phenylethenesulfoneamide•potassium salt] |  |  |  |  |  |  |  |  |  |  | above 3×10^−7 M | 28 ± 9.8 | 10.2 | 9.54 | 98.1 | 99.2 | ≥ 10^−6 M |
